Laboratory results taken from patent EP0101588A1, “Compositions comprising amino and diamino acid derivatives and use thereof as plant growth stimulants” (S.I.P.C.A.M. S.p.A. Società Italiana Prodotti Chimici e per …, priority 1982, dated 1984).
Counter-ions that a name gives are not always drawn.

How the values were obtained:
Assay type in all cases: in vivo
lettuce = assay: Field trial on lettuce, 4 weekly treatments; conditions: 2 g/100 m^2 per treatment, untreated control 18.0
[1] = test system: thiosemicarbazide-treated rabbits with epileptic type syndromes; assay: Intramuscular injection in rabbits with epileptic type syndromes; conditions: 1 ml of 10% aqueous solution, as long as the level of the compound remains adequate
Method: Prepare an aqueous solution containing 10% pure N-carboxymethyl-gamma-aminobutyric acid disodium salt and autoclave for 2 h at 115°C.
Inject very slowly by intramuscular route 1 ml of the solution thus prepared in thiosemicarbazide-treated rabbits with epileptic type syndromes.

Radish = assay: Greenhouse radish crop, spraying after emergence; conditions: 0.01 g/m^2 per treatment, two treatments at an interval of 4 days; for Radish crop roots only: untreated control 165; for Radish crop whole plants: untreated control 198
San Marzano tomatoes = assay: Field trial on tomatoes, spraying before and after flowering; conditions: 3 g/100 m^2 per treatment, 2 treatments before flowering and 3 weekly after flowering; untreated control 321
Italy grapevines = assay: Vineyard trial, applications mixed with fungicides; conditions: 1 g/100 m^2, 2 weekly applications before and 6 after flowering, mixed with fungicide mixtures; untreated control 234
spinach = assay: Field trial on spinach, 4 weekly treatments; conditions: 2 g/100 m^2 per treatment, untreated control 8.3

Structure (SMILES): O=C([O-])CCCNCC(=O)[O-].[Na+].[Na+] [N-carboxymethyl gamma-amino-butyric acid disodium salt]
- Harvest Lettuce (lettuce): 26.5 kg/100 m^2
- convulsions [1]: convulsions disappear
- Radish crop roots only (Radish): 280 g/m^2
- Radish crop whole plants (Radish): 350 g/m^2
- Fruit harvest (San Marzano tomatoes): 569 kg/100 m^2
- Grape harvest (Italy grapevines): 351 kg/100 m^2
- Harvest Spinach (spinach): 12.6 kg/100 m^2

Structure (SMILES): NCCCCNCC(=O)[O-].[Na+] [N-carboxymethyl-1,4-diamino-butane sodium salt]
- Harvest Lettuce (lettuce): 23.5 kg/100 m^2
- Radish crop roots only (Radish): 272 g/m^2
- Radish crop whole plants (Radish): 335 g/m^2
- Fruit harvest (San Marzano tomatoes): 574 kg/100 m^2
- Grape harvest (Italy grapevines): 345 kg/100 m^2
- Harvest Spinach (spinach): 11.8 kg/100 m^2

Structure (SMILES): CC(NCCCC(=O)O)C(=O)O (stereo not shown) [N-methylcarboxymethyl-gamma-aminobutyric acid disodium salt]
- Harvest Lettuce (lettuce): 24.3 kg/100 m^2
- Radish crop roots only (Radish): 262 g/m^2
- Radish crop whole plants (Radish): 321 g/m^2
- Fruit harvest (San Marzano tomatoes): 513 kg/100 m^2
- Grape harvest (Italy grapevines): 320 kg/100 m^2
- Harvest Spinach (spinach): 11.5 kg/100 m^2
